What was measured:
[1] = system: Pseudomonas syringae PstDC3000; test: Induced resistance of Arabidopsis thaliana to Pseudomonas syringae infection; assay type: in vivo; conditions: for disease index / number of bacteria in the leaves, CFU (mg) / number of bacteria in the leaves, CFU/mg: 3 days after inoculation; for decrease of the number of bacteria per milligram of leaves: compared with blank control
Experimental: 2-amino-3-phenylbutyric acid was dissolved in sterile water and then gradiently diluted with sterile water into solutions of 100 nM, 1,000 nM, and 10,000 nM, and a blank control was set up, while 0.02% Tween 20 was added as surfactant. The Pseudomonas syringae PstDC3000 was coated on the LB plate and cultured at 28° C. for 48 hours. Single colonies were picked and inoculated into a 50 mL centrifuge tube containing 2 mL of medium, cultured at 28° C. on a shaker at 250 rpm. The change of OD600 value of the bacterial solution was monitored every 1-2 hours until it reached 0.8, and the culture of the bacteria was stopped. 1 mL of the bacterial solution was transferred into a 1.5 mL sterile centrifuge tube and centrifuged at 8,000 rpm for 2 min to collect the precipitate. The supernatant was removed, and the precipitate was washed 3 times with 10 mM magnesium chloride and centrifuged, and finally the PstDC3000 was resuspended in 10 mM magnesium chloride to reach an OD600 value of […] for later use. The Arabidopsis thaliana seeds were soaked in 75% alcohol for 3 min, then washed 4 times with sterile water and planted in a Petri dish containing ½ MS medium. Twelve seeds were planted in each petri dish, and ½ MS petri dishes with seeds were vernalized at 4° C. for 3 d to break dormancy and then placed in a culture room at 22° C. with a light intensity of 100 μE m^−2s^−1 (16 h light/8 h darkness). When the seedlings grew for 2 weeks, the 2-amino-3-phenylbutyric acid solutions at different concentrations were slowly poured into the petri dish until the whole Arabidopsis thaliana seedlings were submerged, and kept for 2-3 minutes, and then the treatment solution was poured out of the petri dish. The treatment was performed once every 24 h for a total of 2 treatments. 24 hours after the second treatment, the PstDC3000 suspension (OD600=0.01) was inoculated onto the leaves of Arabidopsis thaliana by the same submerge method. After inoculation, the petri dish was closed with a medical breathable adhesive tape and placed in the culture room for further culture. After 3 days, the number of bacteria in different treatments was determined and the incidence of Arabidopsis thaliana was observed. The disease index was calculated in the same manner as that in Example 2.
Grading standard of Disease injury caused by PstDC3000 (per leave): • Grade 0: No diseased patches on the leaves; • Grade 1: The area of diseased spots accounts for 0%-10% of the whole leaf; • Grade 2: The area of diseased spots accounts for 10%-25% of the whole leaf; • Grade 3: The area of diseased spots accounts for 25%-50% of the whole leaf; • Grade 4: The area of diseased spots accounts for 50%-75% of the whole leaf; • Grade 5: The area of diseased spots accounts for 75%-100% of the whole leaf.

[2] = system: tomato spotted wilt virus; test: Induced resistance of tobacco to tomato spotted wilt virus infection; assay type: in vivo, Nicotiana benthamiana; conditions: for viral protein content: leaves 3 days after inoculation, Western blot grey scale
Experimental: Tomato spotted wilt virus was obtained from Yunnan Province, China. The initial virus source was stored in a refrigerator at −80° C., and inoculated on the leaves of Nicotiana benthamiana using friction inoculation method to activate the virus. The virus plasmids were extracted and transformed with competent cells of Escherichia coli. The competent cells were coated on a resistant plate for culture. Single colonies were picked for PCR screening, and positive colonies were selected for sequencing and subsequent plasmid extraction. The plasmids with normal sequencing results were added to competent cells of Agrobacterium sp, and Agrobacterium was transformated by electroporation. A solution of the transformed Agrobacterium was coated on the corresponding resistant screening plate, and cultured at 28° C. (+1° C.) for 48 h. Single colonies of the Agrobacterium on transformation plate were picked, placed in 5 mL of LB medium with the corresponding resistance, and cultured overnight at 28° C., 180 rpm. The bacterial cells were collected by centrifugation at 6,000 rpm for 2 min, suspended with a treatment solution (10 mM MgCl2, 10 mM MES, and 10 μM Acetosyringone) until the OD600 value of the suspension was 0.5. The suspension was treated at 28° C. in the dark for 3 hours for later use. 2-amino-3-phenylbutyric acid was dissolved in distilled water and then gradiently diluted with distilled water into solutions of 0 nM, 0.1 nM, 1 nM, and 10 nM. Nicotiana benthamiana seeds were planted in small pots and incubated at 22° C. (+1° C.), 12 h/12 h light for 5 weeks. Healthy tobacco plants (preferably with 8-10 leaves) were selected and treated with the 2-amino-3-phenylbutyric acid solutions of the above concentrations by spraying on the stems and leaves, and repeated the treatment at 24-hour intervals for a total of two treatments. After 24 hours, a uniform concentration of Agrobacterium solution was extracted with a 1 mL syringe, the injection port of the syringe was pressed directly on the small hole on the back of the tobacco leaf, and the bacterial solution was slowly pushed in order to infiltrate soak the entire leaf. The infiltrated tobacco was moved to an environment of 24° C. (+1° C.), 12 h/12 h light for incubation. After 3 days, microscopic observation was performed and recorded. At the same time, the samples were taken, and the gray scale of protein bands was analyzed by Western blot combined with Image J software to determine the relative protein content of virus in leaves. After 15 days, the disease of tobacco leaves was observed and the disease index was recorded with reference to “grade and investigation method of tobacco diseases and insect pests” (GB/T 23222-2008) with the following formulas: […]
Grading standard of Tomato spotted wilt virus disease (grading and investigation were conducted per plant): • Grade 0: the whole plant is disease free; • Grade 1: heart leaves have clear veins or slightly mosaic, and there is no obvious dwarfing of diseased plants; • Grade 3: one-third of the leaves are mosaic without deformation, or the diseased plant is dwarfed to three quarters or more of the normal plant height; • Grade 5: one-third to one-half of the leaves are mosaic, or a few leaves are deformed, or the main veins become black, or the diseased plant is dwarfed to two-thirds to three-quarters of the normal plant height; • Grade 7: one-half to two-thirds of the leaves are mosaic or deformed, or a few main and lateral veins become necrotic, or the diseased plant is dwarfed to one-half to two-thirds of the normal plant height; • Grade 9: the leaves of the whole plant are mosaic, severely deformed or necrotic, or the diseased plant is dwarfed to one-half or […] of the normal plant height.

[3] = 0.1 nM spray, 15 days after inoculation
[4] = 1 nM spray, 15 days after inoculation
[5] = each treatment in the range 0.1-10 nM

SMILES | decrease of the disease index ([1]; 100 nM) [%] | disease index ([1]; 100 nM) [b] | decrease of the number of bacteria per milligram of leaves ([1]; 100 nM) [%] | decrease of the disease index ([1]; 1,000 nM) [%] | disease index ([1]; 1,000 nM) [c] | decrease of the number of bacteria per milligram of leaves ([1]; 1,000 nM) [%] | decrease of the disease index ([1]; 10,000 nM) [%] | number of the bacteria per mg leaves ([1]; 10,000 nM) | decrease of the number of bacteria per milligram of leaves ([1]; 10,000 nM) [%] | relative immunization effect (%) ([2]; 0.1 nM) | disease index [2, 3] [b] | viral protein content ([2]; 0.1 nM) [b] | relative immunization effect (%) ([2]; 1 nM) | disease index [2, 4] [c] | viral protein content ([2]; 1 nM) [c] | relative immunization effect (%) ([2]; 10 nM) | disease index [2, 5] | relative immune effect [2, 5] [%] | further results
CC(CCCN)C(N)C(=O)O (stereo not drawn) [2,6-diamino-3-methylhexanoic acid] | 50.96 | 42.01 ± 1.36 | 73.93 | 56.15 | 37.57 ± 0.24 | 84.15 | 76.82 | 1.58×10^5 per mg leaves | 95.11 | 53.08 | 42.64 ± 1.25 | 0.41 ± 0.005 | 63.72 | 32.97 ± 1.26 | 0.23 ± 0.002 | 70.94 | lower than 50 | ≥ 50 | number of bacteria in the leaves, CFU (mg) ([1]; 100 nM): 8.42 × 10^5 CFU (mg); number of bacteria in the leaves, CFU (mg) ([1]; 1,000 nM): 5.12 × 10^5 CFU (mg); number of bacteria in the leaves, CFU (mg) ([1]; 10,000 nM): 1.58 × 10^5 CFU (mg)
CC(c1ccccc1)C(N)C(=O)O (stereo not drawn) [2-amino-3-phenylbutyric acid] | 52.57 | 38.04 ± 1.04 | 92.05 | 58.45 | 33.33 ± 4.17 | 92.94 | 81.82 | 1.34×10^5 per mg leaves | 95.56 | 35.77 | 48.77 ± 0.87 | 0.33 ± 0.003 | 60.98 | 29.63 ± 1.51 | 0.14 ± 0.008 | 69.23 | lower than 50 | ≥ 35 | number of bacteria in the leaves, CFU/mg ([1]; 100 nM): 2.40 × 10^5 CFU/mg; number of bacteria in the leaves, CFU/mg ([1]; 1,000 nM): 2.13 × 10^5 CFU/mg; number of bacteria in the leaves, CFU/mg ([1]; 10,000 nM): 1.34 × 10^5 CFU/mg
